Values of other authors as cited in patent US20150104527A1, “AQUEOUS IONIC SOLUTION CONTAINING SEAWATER AND AT LEAST ONE COMPOUND THAT IS ORIGINALLY IMMISCIBLE WITH SEA WATER” (LABORATOIRE DE LA MER, priority 2011, published 2015).

How the values were obtained:
[1] = system: nasal mucus membrane; settings: observed in patients even for short use; Graf P et al, 1999
[2] = system: human neutrophiles; settings: even at low concentration; Boston et al, 2003

benzalkonium chloride
effect on the nasal mucus membrane [1]: deleterious effects | toxicity for human neutrophiles [2]: toxic
